PubChem BioAssay (NCI)
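In this assay, cells in 96-well plates receive the compound at five concentrations for 48 hours. Endpoints are linearly interpolated between the surrounding concentrations. Here, GI50 denotes the concentration required for 50% inhibition of growth. TGI: concentration producing complete growth inhibition.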

What was measured:
Assay in all cases: NCI anticancer screen, dose series, 48 h
786-0 renal = tested on: 786-0 renal
BT-549 breast = tested on: BT-549 breast
HCT-15 colon = tested on: HCT-15 colon
HOP-62 NSCLC = tested on: HOP-62 NSCLC
HT29 colon = tested on: HT29 colon
NCI/ADR-RES ovarian = tested on: NCI/ADR-RES ovarian
OVCAR-5 ovarian = tested on: OVCAR-5 ovarian
RXF 393 renal = tested on: RXF 393 renal
SK-MEL-2 melanoma = tested on: SK-MEL-2 melanoma
SK-MEL-28 melanoma = tested on: SK-MEL-28 melanoma

Row | Compound | GI50 (786-0 renal) [µM] | TGI (786-0 renal) [µM] | GI50 (BT-549 breast) [µM] | TGI (BT-549 breast) [µM] | GI50 (HCT-15 colon) [µM] | TGI (HCT-15 colon) [µM] | GI50 (HOP-62 NSCLC) [µM] | TGI (HOP-62 NSCLC) [µM] | GI50 (HT29 colon) [µM] | TGI (HT29 colon) [µM] | GI50 (NCI/ADR-RES ovarian) [µM] | TGI (NCI/ADR-RES ovarian) [µM] | GI50 (OVCAR-5 ovarian) [µM] | TGI (OVCAR-5 ovarian) [µM] | GI50 (RXF 393 renal) [µM] | TGI (RXF 393 renal) [µM] | GI50 (SK-MEL-2 melanoma) [µM] | TGI (SK-MEL-2 melanoma) [µM] | GI50 (SK-MEL-28 melanoma) [µM] | TGI (SK-MEL-28 melanoma) [µM]
1 | O=C(O)c1cn(C2CC2)c2cc(N3CCN(C(=O)Nc4nc(-c5ccccc5)cs4)CC3)c(F)cc2c1=O | 0.592 | 16.9 | 0.473 | 10.4 | 2.27 | > 100 | 2.67 | 82.4 | 0.636 | 4.67 | 4.82 | > 100 | 2.36 | > 100 | 1.53 | 26.3 | 1.85 | 6.42 | 0.705 | > 100
2 | S=c1[nH]nc(Cc2ccccc2)c(=S)[nH]1 | – | > 100 | – | 96.9 | – | > 100 | – | > 100 | – | > 100 | – | > 100 | – | > 100 | – | > 100 | – | > 76.9 | – | > 100
3 | S=c1nc(COc2ccc(Cl)cc2Cl)[nH][nH]1 | – | > 100 | – | – | – | > 100 | – | – | – | > 100 | – | – | – | > 100 | – | > 100 | – | > 100 | – | > 100
4 | O=[N+]([O-])c1ccc(C2CC(c3ccccc3Cl)=Nc3ccccc3S2=O)cc1 (stereo unspecified) | – | 3.31 | – | 31.1 | – | 5.3 | – | 23.4 | – | 5.73 | – | – | – | 18.6 | – | 4.05 | – | 51.7 | – | 13.8
5 | N#CC1CCCCOCCOCCOCCOCCOCCCCCC1=O (stereo unspecified) | – | > 100 | – | – | – | > 100 | – | > 100 | – | > 100 | – | – | – | > 100 | – | > 100 | – | > 100 | – | > 100
6 | O=[N+]([O-])c1ccc(Cl)c(C2CC(c3cccc4ccccc34)=Nc3ccccc3S2)c1 (stereo unspecified) | – | 30.4 | – | – | – | > 100 | – | > 100 | – | > 59.7 | – | – | – | > 100 | – | 21.7 | – | 62.8 | – | > 84.2
7 | Cc1nnc2c3nnc(C)n3c3ccccc3n12 | – | > 100 | – | – | – | > 100 | – | > 100 | – | > 100 | – | – | – | > 100 | – | > 100 | – | > 100 | – | > 100
8 | Cc1cc(S(=O)(=O)/N=C/N(C)C)c(SC(=O)c2ccc(Cl)cc2)cc1Cl | 23.8 | 67.2 | 18.7 | 50.4 | 19.2 | 37 | 41.8 | > 100 | – | – | 28.4 | 72.2 | 48.6 | > 100 | 11.5 | 35.7 | 45.8 | > 100 | 48.9 | > 100
9 | COc1cc(OC)c2nccc(NCCCN(C)C)c2c1[N+](=O)[O-] | – | > 100 | – | > 100 | – | > 100 | – | > 100 | – | > 100 | – | > 100 | – | > 100 | – | – | – | > 100 | – | > 100
10 | O=c1cc(-c2c[nH]c3ccccc23)[nH]c2cc3c(cc12)OCO3 | – | > 100 | – | – | – | > 100 | – | > 100 | – | > 100 | – | – | – | – | – | > 100 | – | > 100 | – | > 100
11 | Cc1cc(Nc2nc(-c3cccnc3)nc3ccccc23)n[nH]1 | 1.31 | > 100 | 4.24 | > 100 | 0.512 | > 100 | 2.68 | > 89.8 | 1.57 | 11.8 | 5.13 | > 92.7 | 7.77 | > 100 | 0.388 | 2.52 | – | – | 10.1 | > 100
12 | CS(=O)(=O)NNS(=O)(=O)c1ccccc1 | – | > 100 | – | – | – | > 100 | – | > 100 | – | > 100 | – | – | – | – | – | > 100 | – | > 100 | – | –
13 | CN(C)c1nnnn1-c1c(N)n(C)c(=O)n(C)c1=O | – | > 100 | – | – | – | > 100 | – | > 100 | – | > 100 | – | – | – | > 100 | – | – | – | > 100 | – | > 100
14 | Cc1ccc(NC(=O)C2C(=O)N(c3ccc(C)c(C)c3)C(=O)/C2=N\NC(N)=O)cc1C (stereo unspecified) | – | > 100 | – | – | – | > 100 | – | > 100 | – | > 100 | – | – | – | > 100 | – | > 100 | – | > 100 | – | > 100
15 | NC(=O)c1ccccc1NC(=O)C(=O)Cc1nc2ccccc2[nH]c1=O | – | > 100 | – | – | – | > 100 | – | > 100 | – | – | – | – | – | > 100 | – | > 100 | – | > 100 | – | > 100
16 | Cc1cc(-c2ccccc2)nc(Nc2nc3ccccc3o2)n1 | – | > 100 | – | – | – | > 100 | – | > 100 | – | > 100 | – | – | – | > 100 | – | – | – | > 100 | – | > 100
17 | Clc1ccc(-c2csc(Nc3cccc(-c4csc(-c5ccccc5)n4)c3)n2)cc1 | 10.8 | 21.1 | 15.8 | 31.4 | 6.01 | 14.7 | 10.7 | 22.8 | – | – | 13 | 24.2 | – | – | 9.89 | 21.9 | 10.6 | 26.1 | 5.93 | 15.6
18 | S=C(Nc1ccc(N=Nc2ccccc2)cc1)SCc1ccccc1 | – | 38 | – | 40.3 | – | 28.3 | – | 41.3 | – | 52.1 | – | 35.1 | – | – | – | 46.4 | – | 50 | – | 38
19 | CC1=CC(=O)C(C(C)C)=CC1=Nc1cc(Br)c(O)c(Br)c1 | 5.03 | 17.8 | 1.69 | 5.64 | 3.85 | 21.1 | 6.29 | 45.2 | 4.05 | 16 | – | – | 11.8 | 30.3 | 3.9 | 15.3 | 8.94 | 30.1 | 6.82 | 22.4
20 | NC(=O)c1c([N+](=O)[O-])cc(C(F)(F)F)cc1[N+](=O)[O-] | – | > 100 | – | – | – | – | – | > 100 | – | > 100 | – | – | – | > 100 | – | > 100 | – | – | – | > 100
